# Source: article PMC6585474, “In vitro and in vivo Human Metabolism of (S)-[^18F]Fluspidine – A Radioligand for Imaging σ1 Receptors With Positron Emission Tomography (PET)” (Frontiers in Pharmacology, 2019)
# Like-named read-outs stand apart in the source and are kept apart here.
# How the values were obtained:
# [1] = set-up: method as in Wiese et al., 2016; settings: mouse brain, 60 min post injection; ref Wiese et al., 2016; cited from earlier work
# [2] = set-up: method as in Wiese et al., 2016; settings: mouse plasma, 30 min post injection; ref Wiese et al., 2016; cited from earlier work
# [3] = system: β-glucuronidase (Helix pomatia type H-3); assay: β-Glucuronidase cleavage of microsomal-formed metabolite M12; format: in vitro ADME; settings: acetate buffer pH 4.5–5.0, 37°C, 2 h; M5 the only product observed
# Description: In order to investigate the cleavage of formed glucuronides (see section “β-Glucuronidase Cleavage of Microsomal-Formed Metabolite M12”), microsomal incubation of (S)-1 was performed in quadruplicate with higher amounts of the substrate and the reagents as follows (final concentrations in brackets): (S)-1 (200 μM), HLM (2 mg/mL), NADPH (4 mM), MgCl2 (5 mM), alamethicin (0.1 mg/mL), UDPGA (10 mM). After addition of acetonitrile, resulting mixtures were combined and further processing was proceeded as described above. The obtained sample was separated chromatographically using the HPLC system I (Section “Radio-HPLC”) with UV monitoring at 210 nm. […]
# To 10 μL of a solution of metabolite M12 (Section “Incubation of (S)-[^18F]1 and Non-radioactive References for Identification of in vitro Metabolites and Radiometabolites”), 32 μL acetate buffer (NaOAc/AcOH, 100 mM, pH 4.5–5.0), and 8 μL β-glucuronidase from Helix pomatia Type H-3 (aqueous solution, ≥90,000 units/mL, final: ≥14,400 units/mL) were added. […] After centrifugation at 14,000 rpm (Eppendorf Centrifuge 5424) for 15 min, 40 μL of the supernatant was diluted with 60 μL of water and analyzed by LC-MS/MS monitoring the MRM transitions m/z 518.2/342.2 (as for glucuronides of mono-oxygenated metabolites, e.g., M12) and 342.2/91.1 (as for mono-oxygenated metabolites, e.g., M5).
# [4] = RLM, NADPH, after 30 min; ref Wiese et al., 2016; cited from earlier work
# [5] = Incubation of (S)-1 with HLM (NADPH, UDPGA) and detection of metabolites by LC-MS/MS; format: in vitro ADME, human; settings: 37°C, 120 min, LC-MS/MS (MRM)
# Description: In the following, the final concentrations are provided in brackets. For incubations of (S)-[^18F]1 together with (S)-1 under conditions for oxidation and glucuronidation, a solution of (S)-1 of 0.1 mg/mL (2 μM) in acetonitrile was put into test tubes and the solvent was evaporated using the DB-3D TECHNE Sample Concentrator (Biostep) at room temperature under a stream of nitrogen. HLM (1 mg/mL) and alamethicin (50 μg/mL, from methanolic solution) were mixed ([Fisher et al., 2000]), kept on ice for 15 min and added to the test tubes. PBS, ∼5 MBq (S)-[^18F]1 in 20 μL PBS, and MgCl2 (2 mM) were added, mixed vigorously and the mixture was pre-incubated at 37°C for 3 min. After addition of analogously pre-incubated NADPH (2 mM) and UDPGA (5 mM), the incubations were continued by gentle shaking at 37°C for 120 min using the BioShake iQ (QUANTIFOIL Instruments). After termination by adding 1.0 mL of cold acetonitrile (-20°C) and vigorous mixing for 30 s, the mixtures were stored at 4°C for 5 min. […]
# For selective detection of metabolites, MRM transitions, which covered products of, e.g., debenzylation, defluorination, single, and multiple oxygenations as well as single and multiple glucuronidation of (S)-1 or its intermediate metabolites, were monitored. After incubation of (S)-1 with HLM in presence of NADPH a series of metabolites (M1–M10) could be detected (Figure 4 and Table 1).
# [6] = Time- and concentration-dependent microsomal transformation of (S)-[^18F]1 (HLM, NADPH, radio-HPLC); format: in vitro ADME, human; settings: 37°C; for unchanged radioligand: after 30 min incubation; for time at which 50% of unchanged (S)-[^18F]1 could be detected: HLM
# Description: Respective amounts of a solution of (S)-1 of 0.1 mg/mL [<1 μM (referring to estimated molar activity; no addition of carrier), 2, and 20 μM] in acetonitrile were put into test tubes and the solvent was evaporated using the DB-3D TECHNE Sample Concentrator (Biostep, Jahnsdorf, Germany) at room temperature under a stream of nitrogen. PBS and HLM (1 mg/mL) and ∼5 MBq (S)-[^18F]1 (molar activity: 17 GBq/μmol, at the start of incubations) in 100 μl PBS were added, mixed vigorously, and pre-incubated at 37°C for 3 min. Analogously pre-incubated NADPH (2 mM) was added and mixtures were shaken gently at 37°C using the BioShake iQ (QUANTIFOIL Instruments, Jena, Germany). After 0, 2, 5, 10, 15, 20, 30, 40, 50, and 60 min, samples of 20 μL were taken and added to 80 μL cold acetonitrile (-20°C), followed by vigorous shaking (30 s), cooling on ice (4 min), and centrifugation at 14,000 rpm (10 min). Supernatants (90 μL) were diluted with water (30 μL) and immediately analyzed by radio-HPLC (system II).
# System II: Analyses of samples from microsomal incubations to determine time and concentration dependency of microsomal transformation were performed on a JASCO X-LC system (JASCO Labor- und Datentechnik) equipped with a UV/Vis detector UV-2070 (monitoring at 210 nm) and a radioactivity flow detector GABI Star (raytest Isotopenmessgeräte, Straubenhardt, Germany) including NaI detector (2 × 2″ pinhole, 16 mm × 30 mm). […] The isocratic solvent system consisted of water/acetonitrile 40:60 (v/v), containing NH4OAc (20 mM). Unchanged (S)-[^18F]1 eluted at a retention time of 4.1 min, whilst formed radiometabolites eluted at 0.6–2.2 min. The percentages of unchanged (S)-[^18F]1 were calculated from HPLC data as follows: Fraction of (S) - [^18F]1(%) = Peak area(S)-[18F]1/(Peak area(S)-[18F]1 + Peak arearadiometabolites) × 100%
# In order to obtain basic information about the metabolic stability in vitro, the time course of the degradation of (S)-[^18F]1 was investigated in presence of different concentrations of (S)-1 [no-carrier-added (n.c.a., <1 μM) and carrier-added: 2 and 20 μM]. For that purpose, incubations were performed in PBS with HLM and NADPH at 37°C. At defined time points (until 60 min) samples were taken and added to cold acetonitrile to terminate the incubations. After centrifugation, the fractions of remaining (S)-[^18F]1 were determined by radio-HPLC.
# [7] = rhesus monkey, in vivo; cited from earlier work
# [8] = human, in vivo
# Description: After injection of 244.6-290.4 MBq (mean: 265.5 MBq) of (S)-[^18F]1 into 8 healthy controls arterial blood samples (∼16 mL) were withdrawn at 10, 20, and 30 min. […] After 90 or 120 min, urine (∼8 mL) was collected and stored on ice. Plasma was obtained by centrifugation of blood samples at 7,000 rpm (UNIVERSAL 320 R, Hettich, Germany) for 7 min. Protein precipitation and extraction with acetonitrile was conducted as follows. Method A: 10 × 1.6 mL cold acetonitrile (-35°C) were added to 10 × 400 μL plasma, shaken for 3 min, cooled at 4°C for 5 min and centrifuged at 7,000 rpm (Eppendorf Centrifuge 5424) for 5 min. Supernatants were collected and the precipitates were extracted with 1.6 mL acetonitrile each. The combined supernatants were concentrated at 70°C under a flow of nitrogen (Sample Concentrator DB-3D TECHNE) to provide residual volumes of 40–70 μL, which were reconditioned by adding water to obtain samples of 100 μL, which were immediately analyzed by radio-HPLC (system I). Method B: similar to method A, using 2 × 8 mL cold acetonitrile (-35°C) and 2 × 2 mL plasma. After centrifugation, the precipitates were extracted with 2 × 4 mL acetonitrile.
# System I: Analyses were performed on a JASCO LC-2000 system (JASCO Labor- und Datentechnik, Gross-Umstadt, Germany) including a UV-2070 UV–VIS detector (monitoring at 210 nm) online with a GABI Star radioactivity flow detector (raytest Isotopenmessgeräte, Straubenhardt, Germany) with a NaI detector (2 × 2″ pinhole, 16 mm × 30 mm). Chromatographic separations were achieved using a Multospher 120 RP 18 AQ-5μ-column, 250 mm × 4.6 mm, 5 μm, including pre-column, 10 mm × 4 mm (CS-Chromatographie Service, Langerwehe, Germany). The solvent system consisted of eluent A: water/acetonitrile, 95:5 (v/v), containing NH4OAc (20 mM) and eluent B: water/acetonitrile, 20:80 (v/v), containing NH4OAc (20 mM). […]
# Urine samples, taken after 90 or 120 min post injection were measured by radio-HPLC without further preparation.
# [9] = in vivo, cited from earlier work
# [10] = HLM 1 mg/mL, PBS, n.c.a. (<1 μM)
smiles,measurement,setting,value
"[17F]CCC1OC2(CCN(Cc3ccccc3)CC2)c2ccccc21 (racemic) [rac-[^18F]1, racemic [^18F]fluspidine]",unchanged radioligand in brain,[1],98%
same,fraction of unchanged rac-[^18F]1 in plasma,[2],89 ± 3%
O=C(O)[C@H]1OC(OC(CF)[C@@H]2OC3(CCN(Cc4ccccc4)CC3)c3ccccc32)[C@H](O)[C@@H](O)[C@@H]1O (some centres unmarked) [M12],cleavage by β-glucuronidase,[3],cleaved completely
"FCCC1OC2(CCN(Cc3ccccc3)CC2)c2ccccc21 (racemic) [rac-1, racemic fluspidine]",stability (intact compound),[4],~13%
"FCC[C@@H]1OC2(CCN(Cc3ccccc3)CC2)c2ccccc21 [(S)-1, 1′ -benzyl-3-(2-fluoroethyl)-3H-spiro[2-benzofuran-1,4′ -piperidine]]",defluorination,[5],not observed
same,unchanged radioligand,[6]; [10],14%
"[18F]CC[C@@H]1OC2(CCN(Cc3ccccc3)CC2)c2ccccc21 [(S)-[^18F]1, (S)-[^18F]fluspidine]",fraction of the total activity in plasma,[7],50%
same,Fraction of (S)-[^18F]1 of the total activity in urine,[8],0.0–7.9%
same,Fraction of (S)-[^18F]1 in urine,[8]; 90 min,2.6%
same,Fraction of (S)-[^18F]1 in urine,[8]; 120 min,2.5%
same,radioligand remained unchanged in plasma,[9]; 16 min,48%
same,radioligand remained unchanged in plasma,[9]; 0.5 h,37%
same,unchanged radioligand,[6]; [10],14%
same,unchanged (S)-[^18F]1,"[6]; HLM 1 mg/mL, PBS, n.c.a. (<1 μM), after 60 min",3%
same,time at which 50% of unchanged (S)-[^18F]1 could be detected,[6]; 2 μM added (S)-1,10 min
same,time at which 50% of unchanged (S)-[^18F]1 could be detected,[6]; 20 μM added (S)-1,17 min
same,time at which 50% of unchanged (S)-[^18F]1 could be detected,[6]; n.c.a. (<1 μM),10 min
